Measured values as given in ChEMBL document CHEMBL1201862, “PubChem BioAssay data set” (2004).
Activity calls are given as the source filed them.

Experiments:
[1] = target: T1, Mucolipin-3 (Homo sapiens, UniProt Q8TDD5); experiment: Dose response cell-based high-throughput screening assay for agonists of the transient receptor potential channel ML3 (TRPML3). [Related pubchem assays: 1526, 1424, 1448 ]; type: functional
T1 sequence (Q8TDD5 whole entry): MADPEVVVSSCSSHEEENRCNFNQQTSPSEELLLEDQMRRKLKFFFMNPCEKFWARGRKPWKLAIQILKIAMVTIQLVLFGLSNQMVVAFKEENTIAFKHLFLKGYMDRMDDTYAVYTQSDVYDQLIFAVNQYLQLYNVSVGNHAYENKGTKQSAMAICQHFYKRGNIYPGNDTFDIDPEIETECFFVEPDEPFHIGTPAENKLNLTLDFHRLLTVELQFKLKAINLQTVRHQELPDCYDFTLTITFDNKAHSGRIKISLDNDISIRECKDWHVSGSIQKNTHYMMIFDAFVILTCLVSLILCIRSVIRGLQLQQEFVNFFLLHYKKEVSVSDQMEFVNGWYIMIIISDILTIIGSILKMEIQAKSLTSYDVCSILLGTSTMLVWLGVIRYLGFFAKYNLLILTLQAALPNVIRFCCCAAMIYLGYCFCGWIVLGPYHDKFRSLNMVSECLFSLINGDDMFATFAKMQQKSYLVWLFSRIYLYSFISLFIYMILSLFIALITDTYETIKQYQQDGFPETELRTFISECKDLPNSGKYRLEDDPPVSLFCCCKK

[2] = target: Ion channel NompC (Danio rerio, UniProt Q7T1G6); experiment: Fluorescence counterscreen assay for TRPML3 agonists: dose response cell-based high-throughput screening assay to identify agonists of the transient receptor potential channel N1 (TRPN1). [Related pubchem assays: 1526, 1424, 1448 ]; type: functional
Sequence of Ion channel NompC (Q7T1G6 whole entry, the tested form may be a part): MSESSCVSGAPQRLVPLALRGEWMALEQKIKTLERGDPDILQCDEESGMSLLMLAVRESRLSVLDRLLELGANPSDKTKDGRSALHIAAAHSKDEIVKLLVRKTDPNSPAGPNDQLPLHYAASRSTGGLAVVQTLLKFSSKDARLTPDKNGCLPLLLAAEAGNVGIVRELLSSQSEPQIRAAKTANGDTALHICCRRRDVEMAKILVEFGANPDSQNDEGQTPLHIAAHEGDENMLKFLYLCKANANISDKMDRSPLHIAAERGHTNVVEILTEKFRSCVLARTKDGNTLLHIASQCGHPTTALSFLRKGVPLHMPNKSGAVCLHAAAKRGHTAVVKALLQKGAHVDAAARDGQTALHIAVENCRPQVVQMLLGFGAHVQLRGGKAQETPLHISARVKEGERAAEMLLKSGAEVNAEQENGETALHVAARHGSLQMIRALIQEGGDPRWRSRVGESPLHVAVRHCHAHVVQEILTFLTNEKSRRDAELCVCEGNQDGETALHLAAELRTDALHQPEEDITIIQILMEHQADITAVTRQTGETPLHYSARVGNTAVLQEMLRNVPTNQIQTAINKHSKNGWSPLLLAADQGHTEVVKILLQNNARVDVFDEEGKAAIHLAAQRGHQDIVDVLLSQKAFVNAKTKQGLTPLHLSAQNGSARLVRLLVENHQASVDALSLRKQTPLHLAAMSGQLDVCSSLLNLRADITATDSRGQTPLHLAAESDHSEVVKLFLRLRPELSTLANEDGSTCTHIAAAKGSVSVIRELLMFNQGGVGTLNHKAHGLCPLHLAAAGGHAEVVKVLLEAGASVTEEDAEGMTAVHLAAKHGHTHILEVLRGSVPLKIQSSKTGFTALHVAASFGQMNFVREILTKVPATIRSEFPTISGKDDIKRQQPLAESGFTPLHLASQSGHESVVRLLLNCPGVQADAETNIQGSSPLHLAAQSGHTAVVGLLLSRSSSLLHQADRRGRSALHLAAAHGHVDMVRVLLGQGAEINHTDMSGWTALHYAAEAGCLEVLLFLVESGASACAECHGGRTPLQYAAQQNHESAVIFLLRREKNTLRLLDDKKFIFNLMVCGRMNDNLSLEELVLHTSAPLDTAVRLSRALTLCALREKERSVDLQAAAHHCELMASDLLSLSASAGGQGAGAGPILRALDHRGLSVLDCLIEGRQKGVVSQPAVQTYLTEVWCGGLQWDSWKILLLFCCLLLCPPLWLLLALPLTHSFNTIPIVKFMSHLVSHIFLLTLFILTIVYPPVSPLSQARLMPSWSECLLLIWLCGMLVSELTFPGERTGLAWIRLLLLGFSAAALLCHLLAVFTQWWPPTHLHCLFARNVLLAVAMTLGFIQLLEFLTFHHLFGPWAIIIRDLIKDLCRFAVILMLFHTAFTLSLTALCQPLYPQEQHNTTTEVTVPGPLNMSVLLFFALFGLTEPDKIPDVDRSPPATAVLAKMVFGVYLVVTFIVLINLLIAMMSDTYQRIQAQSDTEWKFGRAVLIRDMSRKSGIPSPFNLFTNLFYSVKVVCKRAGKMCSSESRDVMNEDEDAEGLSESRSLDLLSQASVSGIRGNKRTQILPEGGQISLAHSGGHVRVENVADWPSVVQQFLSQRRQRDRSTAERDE

[3] = target: T2, Estrogen receptor (Homo sapiens, UniProt P03372); experiment: potentiators of ERα–SRC-1 coactivator binding, dose response, biochemical, TR-FRET, ERα LBD (AID 737)
T2 sequence (P03372 whole entry): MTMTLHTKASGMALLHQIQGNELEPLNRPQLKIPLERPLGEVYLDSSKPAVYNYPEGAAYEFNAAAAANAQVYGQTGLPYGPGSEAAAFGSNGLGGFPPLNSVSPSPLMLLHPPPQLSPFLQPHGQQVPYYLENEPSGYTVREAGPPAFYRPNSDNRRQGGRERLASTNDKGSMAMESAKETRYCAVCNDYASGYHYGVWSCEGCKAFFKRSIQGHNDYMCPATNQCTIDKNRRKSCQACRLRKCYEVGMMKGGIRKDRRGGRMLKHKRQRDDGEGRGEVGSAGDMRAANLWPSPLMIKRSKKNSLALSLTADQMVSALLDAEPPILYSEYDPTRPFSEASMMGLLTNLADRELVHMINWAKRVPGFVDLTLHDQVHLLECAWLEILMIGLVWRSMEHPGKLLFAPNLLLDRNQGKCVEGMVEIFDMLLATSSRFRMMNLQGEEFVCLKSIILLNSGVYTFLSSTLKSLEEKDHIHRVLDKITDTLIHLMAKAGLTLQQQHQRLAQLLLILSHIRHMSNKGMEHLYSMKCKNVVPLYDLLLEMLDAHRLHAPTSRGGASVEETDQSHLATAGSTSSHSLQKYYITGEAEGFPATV

[4] = target: T3, NADPH oxidase 1 (Homo sapiens, UniProt Q9Y5S8); type: functional, cell-based;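 note: Cell-based assay with luminescence read-out, IC50 derived from inhibitor dose-response curves; intracellular ROS from endogenous NOX1 in intact HT29 colon cancer cells; potency of inhibitors that lower the ROS luminescence signal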
T3 sequence (Q9Y5S8 whole entry): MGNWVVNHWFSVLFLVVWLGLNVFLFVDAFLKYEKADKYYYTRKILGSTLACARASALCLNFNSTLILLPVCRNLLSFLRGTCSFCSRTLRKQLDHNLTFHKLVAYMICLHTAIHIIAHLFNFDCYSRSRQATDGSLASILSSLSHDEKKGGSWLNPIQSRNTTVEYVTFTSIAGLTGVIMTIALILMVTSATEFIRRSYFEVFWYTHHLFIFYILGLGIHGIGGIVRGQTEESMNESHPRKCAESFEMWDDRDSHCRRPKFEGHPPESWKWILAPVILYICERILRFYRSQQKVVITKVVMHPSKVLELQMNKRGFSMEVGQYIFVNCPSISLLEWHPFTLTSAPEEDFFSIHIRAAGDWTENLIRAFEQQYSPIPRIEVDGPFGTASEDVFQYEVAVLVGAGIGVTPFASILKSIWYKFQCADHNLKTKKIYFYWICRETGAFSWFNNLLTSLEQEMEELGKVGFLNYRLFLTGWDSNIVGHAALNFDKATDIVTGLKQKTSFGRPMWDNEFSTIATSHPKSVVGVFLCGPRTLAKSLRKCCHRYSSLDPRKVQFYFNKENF

[5] = Counterscreen for IDE inhibitors: Luminescence-based cell-based high throughput dose response assay to identify compounds that are cytotoxic to HEK cells. [Related pubchem assays: 434962 (Primary screen (IDE inhibitors in singlicate)), 449730 (Counterscreen (Cytotoxicity in triplicate)), 435028 (Confirmation (IDE inhibitors in triplicate)) …; type: functional; details: HEK293
[6] = target: T4, Insulin-degrading enzyme (Homo sapiens, UniProt P14735); experiment: Dose Response: Fluorescence polarization-based cell-based high throughput dose response assay for inhibitors of insulin-degrading enzyme (IDE). [Related pubchem assays: 434962 (Primary screen (IDE inhibitors in singlicate)), 449730 (Counterscreen (Cytotoxicity in triplicate)), 435028 (Confirmation (IDE inhibitors in triplicate)), 434984 (Summary …; type: functional
T4 sequence (P14735 whole entry): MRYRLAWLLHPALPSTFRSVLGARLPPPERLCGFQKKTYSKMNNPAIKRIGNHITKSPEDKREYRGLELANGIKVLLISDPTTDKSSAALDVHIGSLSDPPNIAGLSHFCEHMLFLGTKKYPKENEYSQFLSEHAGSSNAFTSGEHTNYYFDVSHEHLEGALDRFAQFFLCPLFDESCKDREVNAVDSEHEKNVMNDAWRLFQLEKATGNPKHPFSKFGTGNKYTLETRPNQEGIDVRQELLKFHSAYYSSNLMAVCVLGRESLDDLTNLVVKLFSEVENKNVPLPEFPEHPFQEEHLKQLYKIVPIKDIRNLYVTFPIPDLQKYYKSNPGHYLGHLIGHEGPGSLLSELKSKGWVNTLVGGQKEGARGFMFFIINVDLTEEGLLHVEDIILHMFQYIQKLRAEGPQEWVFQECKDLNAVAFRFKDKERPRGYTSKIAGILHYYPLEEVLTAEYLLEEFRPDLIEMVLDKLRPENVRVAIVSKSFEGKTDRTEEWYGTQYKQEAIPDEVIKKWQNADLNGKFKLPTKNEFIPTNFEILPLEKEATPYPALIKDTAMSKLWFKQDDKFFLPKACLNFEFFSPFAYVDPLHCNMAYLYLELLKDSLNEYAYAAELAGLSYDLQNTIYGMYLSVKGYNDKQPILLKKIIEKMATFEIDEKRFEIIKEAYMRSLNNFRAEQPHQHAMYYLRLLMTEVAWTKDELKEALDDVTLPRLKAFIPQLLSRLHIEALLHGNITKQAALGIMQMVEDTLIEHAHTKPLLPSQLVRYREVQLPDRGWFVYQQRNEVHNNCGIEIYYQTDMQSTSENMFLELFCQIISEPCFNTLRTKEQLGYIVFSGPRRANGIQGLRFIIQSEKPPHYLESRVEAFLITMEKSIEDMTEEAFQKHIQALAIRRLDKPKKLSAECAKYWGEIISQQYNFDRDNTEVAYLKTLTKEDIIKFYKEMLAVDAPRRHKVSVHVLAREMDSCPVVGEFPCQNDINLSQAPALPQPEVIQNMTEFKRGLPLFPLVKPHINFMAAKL

[7] = enhancers of respiration in Yfh1-depleted yeast, dose response, Friedreich's ataxia, plus single-dose screen (AID 1465); type: functional;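 note: yeast depleted of Yfh1p frataxin homolog grown on glycerol needing respiration; WST-1 tetrazolium dye reduction as measure of cellular dehydrogenase metabolic activity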
[8] = HEp-2 cell cytotoxicity, dose response, cytotoxicity control for RSV inhibitor project, HTS (AID 2410); type: functional; details: human respiratory syncytial virus
[9] = target: T2, Estrogen receptor
[10] = target: T5, Estrogen receptor beta (Homo sapiens, UniProt Q92731);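 note: recombinant ER-beta bound to coactivator SRC1 peptide in presence of estradiol agonist; inhibitors block coactivator peptide binding and lower the FRET signal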
T5 sequence (Q92731 whole entry): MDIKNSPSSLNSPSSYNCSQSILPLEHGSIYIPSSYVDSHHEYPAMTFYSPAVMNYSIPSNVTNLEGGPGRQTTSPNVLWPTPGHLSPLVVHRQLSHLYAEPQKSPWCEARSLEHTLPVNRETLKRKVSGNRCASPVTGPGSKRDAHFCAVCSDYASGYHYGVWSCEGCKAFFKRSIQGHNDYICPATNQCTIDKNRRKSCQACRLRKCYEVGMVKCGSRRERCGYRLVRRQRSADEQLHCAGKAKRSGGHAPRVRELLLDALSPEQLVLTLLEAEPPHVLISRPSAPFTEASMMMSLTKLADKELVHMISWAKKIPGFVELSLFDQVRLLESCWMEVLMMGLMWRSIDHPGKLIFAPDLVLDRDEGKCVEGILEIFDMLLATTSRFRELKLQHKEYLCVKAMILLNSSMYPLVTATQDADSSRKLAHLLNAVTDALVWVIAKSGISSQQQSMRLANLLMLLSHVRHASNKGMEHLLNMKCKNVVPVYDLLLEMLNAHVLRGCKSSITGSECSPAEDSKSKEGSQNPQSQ

[11] = target: T5, Estrogen receptor beta; experiment: ERβ–SRC-3 coactivator interaction inhibitors, confirmation, orthogonal assay, biochemical, ELISA, streptavidin-HRP readout (AID 1060)
[12] = inhibitors of firefly luciferase expression or activity, dose response, H4 neuroglioma cells, luminescence (AID 1990); type: functional, cell-based
[13] = Luminescence Cell-Based Dose Response HTS to Identify Inhibitors of 5'UTR Stem-Loop Driven Prion Protein mRNA Translation in H4 Neuroglioblastoma Cells. [Related pubchem assays: 1827 (Project Summary), 1813 (Primary HTS)]; type: functional
[14] = Luminescence-based counterscreen assay for KLF5 inhibitors: dose response cell-based high throughput screening assay to identify cytotoxic compounds using the IEC-6 intestinal epithelial cell line. [Related pubchem assays: 1700 (Primary screen.), 1834 (Confirmation screen.), 1858 (Summary AID.), 1905 (Counterscreen.)]; type: functional
[15] = target: T6, Microphthalmia-associated transcription factor (Homo sapiens, UniProt O75030); experiment: TRPM1 promoter luciferase signal decrease, dose response, MITF inhibitor project, cell-based, SK-MEL-5, cherry-picked, set 3 (AID 493073); type: functional
T6 sequence (O75030 whole entry): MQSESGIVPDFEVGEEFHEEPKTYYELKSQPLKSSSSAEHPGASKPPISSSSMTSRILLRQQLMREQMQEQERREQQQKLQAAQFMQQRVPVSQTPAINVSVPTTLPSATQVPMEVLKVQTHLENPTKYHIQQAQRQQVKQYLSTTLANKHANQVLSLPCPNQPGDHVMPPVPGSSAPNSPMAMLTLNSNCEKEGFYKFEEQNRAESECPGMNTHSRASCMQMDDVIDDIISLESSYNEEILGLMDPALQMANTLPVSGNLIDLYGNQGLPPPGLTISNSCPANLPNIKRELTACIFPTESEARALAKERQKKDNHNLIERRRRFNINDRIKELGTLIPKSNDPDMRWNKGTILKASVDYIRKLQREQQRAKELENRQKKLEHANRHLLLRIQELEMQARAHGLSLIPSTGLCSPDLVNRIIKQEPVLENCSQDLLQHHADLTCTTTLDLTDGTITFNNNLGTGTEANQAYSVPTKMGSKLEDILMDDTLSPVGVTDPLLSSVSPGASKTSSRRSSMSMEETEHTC

[16] = Shn3 3'UTR reporter inhibitors, dose response, cell-based, Clone20 osteoblasts, firefly luciferase, cherry-picked (AID 624132); type: functional;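 note: firefly luciferase luminescence from reporter carrying the Shn3 3'UTR in osteoblasts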
[17] = HepG2 cell cytotoxicity, dose response, cytotoxicity control for Shn3 inhibitor project, CellTiter-Glo, cherry-picked (AID 624134); type: functional, cell-based
[18] = reduction of Shn3 3'UTR firefly luciferase signal, dose response, Schnurri-3 inhibitor project, cell-based, Clone20 osteoblasts, cherry-pick, set 2 (AID 720490); type: functional;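 note: actives lower the luminescence signal as inhibitors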
[19] = target: T7, RNA-binding protein pos-1 (Caenorhabditis elegans, UniProt G5EF15); experiment: inhibitors of POS-1/mex-3 RNA binding, dose response, biochemical, fluorescence polarization (AID 1964);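 note: purified POS-1 fused to maltose binding protein made in E. coli; potency of compounds blocking POS-1 binding to fluorescent RNA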
T7 sequence (G5EF15 whole entry): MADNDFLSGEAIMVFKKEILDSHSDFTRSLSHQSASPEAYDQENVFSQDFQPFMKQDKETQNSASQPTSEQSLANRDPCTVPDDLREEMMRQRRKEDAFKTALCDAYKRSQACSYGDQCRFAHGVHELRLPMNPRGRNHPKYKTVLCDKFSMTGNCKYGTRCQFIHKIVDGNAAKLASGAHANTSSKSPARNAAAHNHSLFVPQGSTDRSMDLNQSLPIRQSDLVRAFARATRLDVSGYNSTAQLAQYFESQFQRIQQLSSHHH

[20] = target: NS3 (Hepatitis C virus, UniProt A3EZJ3); experiment: PubChem AID 2173; parameters: species or system Hepacivirus hominis
Sequence of NS3 (A3EZJ3 whole entry): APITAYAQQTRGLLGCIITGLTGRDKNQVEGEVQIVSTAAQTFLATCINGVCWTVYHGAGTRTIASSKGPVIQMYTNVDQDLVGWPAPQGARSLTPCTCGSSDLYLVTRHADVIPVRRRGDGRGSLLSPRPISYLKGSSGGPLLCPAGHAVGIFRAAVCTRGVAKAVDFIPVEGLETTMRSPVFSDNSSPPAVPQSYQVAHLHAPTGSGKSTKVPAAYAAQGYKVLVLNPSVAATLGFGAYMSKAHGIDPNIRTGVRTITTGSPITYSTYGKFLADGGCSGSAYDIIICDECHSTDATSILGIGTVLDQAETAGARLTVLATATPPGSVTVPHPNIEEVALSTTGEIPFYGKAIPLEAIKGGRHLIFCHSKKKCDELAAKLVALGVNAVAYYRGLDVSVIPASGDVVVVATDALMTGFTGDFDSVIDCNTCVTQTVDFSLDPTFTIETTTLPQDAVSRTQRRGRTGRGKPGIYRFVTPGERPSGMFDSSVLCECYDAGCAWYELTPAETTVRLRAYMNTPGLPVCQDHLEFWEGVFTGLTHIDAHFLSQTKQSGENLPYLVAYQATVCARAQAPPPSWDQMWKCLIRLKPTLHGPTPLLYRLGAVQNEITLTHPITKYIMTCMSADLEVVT

[21] = target: Induced myeloid leukemia cell differentiation protein Mcl-1 (Homo sapiens, UniProt Q07820); type: functional
Sequence of Induced myeloid leukemia cell differentiation protein Mcl-1 (Q07820 whole entry): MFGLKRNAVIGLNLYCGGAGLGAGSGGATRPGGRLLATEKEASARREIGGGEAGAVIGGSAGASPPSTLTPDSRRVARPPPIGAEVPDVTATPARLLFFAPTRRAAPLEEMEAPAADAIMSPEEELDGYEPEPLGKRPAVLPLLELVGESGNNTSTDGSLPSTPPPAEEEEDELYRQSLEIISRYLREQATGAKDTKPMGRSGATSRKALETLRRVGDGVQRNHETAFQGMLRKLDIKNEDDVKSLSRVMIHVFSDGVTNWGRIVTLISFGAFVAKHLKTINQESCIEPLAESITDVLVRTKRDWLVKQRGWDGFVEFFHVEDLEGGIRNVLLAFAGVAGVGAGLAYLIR

[22] = tested on: Vero; experiment: cells; type: functional, cell-based; details: Chlorocebus sabaeus
[23] = tested on: Vero; experiment: cells; type: functional; details: Chlorocebus sabaeus

COC(=O)C1(C(C[N+](=O)[O-])c2ccco2)C(=O)NCC1c1ccccc1 (stereo unspecified)
EC50 [1]: 7.77 µM (active) | EC50 [2]: > 29.9 µM (not active)

COc1cc(NC(=O)c2cc3c(=O)n(C)c4ccccc4c3n2C)cc(OC)c1OC
EC50 [3]: 12.9 µM (not active)

O=C(Nc1ccc(Cl)cc1)Nc1ccc(Oc2ccccc2)cc1
IC50 [4]: > 17 µM (not active)

Cc1c(CCC(=O)NCCCn2ccnc2)c(=O)oc2cc3oc4c(c3cc12)CCCC4
IC50 [5]: 14.4 µM (not active) | IC50 [6]: 4.31 µM (active)

CC1(OC(=O)CCc2ccccc2)C(=O)C=C2C=C(c3ccc(C#N)cc3)N(Cc3ccco3)C=C2C1=O (stereo unspecified)
EC50 [7]: > 100 µM (active)

Cc1ccc(S(=O)(=O)N2CCc3ccccc3C2CN2C(=O)c3ccccc3C2=O)cc1 (stereo unspecified)
CC50 [8]: 45.1 µM (active) | EC50 [1]: > 29.9 µM (not active) | EC50 [2]: > 29.9 µM (not active)

O=C(NCc1ccco1)c1cc2c(s1)CSC2
IC50 [9]: 9.41 µM (active) | IC50 [10]: 7.85 µM (active) | IC50 [11]: 0.0368 µM (not active)

COc1ccc(-n2ncc3c(N4CCCCC4)ncnc32)cc1
EC50 [12]: 1.72 µM (inconclusive) | EC50 [13]: 0.282 µM (active) | IC50 [14]: > 39.8 µM (not active) | AC50 [15]: 1.48 µM (active) | AC50 [16]: 2.87 µM (active) | AC50 [17]: > 70 µM (inactive) | AC50 [18]: 11 µM (active)

CCN(CC)c1ccc(/C=C2\C(=O)NC(=S)N(c3ccc(OC)cc3OC)C2=O)o1
EC50 [19]: > 150 µM (inconclusive) | IC50 [5]: > 55.6 µM (not active) | IC50 [6]: > 6.21 µM (active)

CNc1ccc(Br)cc(C(=O)/C=C/c2cccc(OC)c2)c1=O
IC50 [20]: 8.97 µM (active) | IC50 [21]: 1.92 µM (active) | IC50 [22]: 7.82 µM (active) | CC50 [23]: 12.7 µM (active)

C1CCC(c2nn3c(-c4[nH]nc5c4CCC5)nnc3s2)CC1
IC50 [9]: > 50 µM (not active) | IC50 [10]: 10.2 µM (active) | IC50 [11]: > 50 µM (not active)

CC(=O)Nc1ccccc1OC(=O)c1sc2ccccc2c1Cl
IC50 [4]: > 17 µM (not active)
